Measurements from publication PMC6345558 (European journal of medicinal chemistry, 2018).

Assays:
MCF7 cancer cells = assay: MTT cytotoxicity, MCF7 breast cancer cells; format: cell-based, human; conditions: for IC50: read-out: IC50 MCF7, MTT assay, 24 h incubation
MDA-MB-231 cancer cells = assay: MTT cytotoxicity, MDA-MB-231 breast cancer cells; format: cell-based, human; conditions: read-out: IC50 MDA-MB-231; MTT assay, 24 h incubation
NIH3T3 cells = assay: MTT growth inhibition, NIH3T3 control cells; format: cell-based; conditions: read-out: Half inhibitory growth concentration, IG50, NIH3T3, empty plasmid control, 48 h incubation at 37 °C
MRP1 = MRP1 (Homo sapiens, UniProt P33527); assay: Flow cytometry, inhibition of calcein AM efflux by MRP1; format: cell-based; conditions: compound 20 µM, 0.2 µM calcein AM, transfected cells
MRP2 = MRP2 (Homo sapiens, UniProt Q92887); assay: Flow cytometry, inhibition of calcein AM efflux by MRP2; format: cell-based; conditions: compound 20 µM, 0.2 µM calcein AM, transfected cells
[1] = system: NIH3T3 cells overexpressing P-gp; assay: MTT growth inhibition, NIH3T3 cells overexpressing P-gp
[2] = system: HEK293 cells overexpressing MRP1; assay: MTT growth inhibition, HEK293 cells overexpressing MRP1; conditions: HEK293/MRP1 vs HEK293
[3] = system: HEK293 cells overexpressing BCRP; assay: MTT growth inhibition, HEK293 cells overexpressing BCRP; conditions: HEK293/BCRP vs HEK293
BCRP (ABCG2) = molecular target: T1, BCRP (ABCG2) (Homo sapiens, UniProt Q9UNQ0); assay: Flow cytometry, inhibition of mitoxantrone efflux by BCRP; conditions: compound 20 µM, 5 µM mitoxantrone, transfected cells
T1 sequence (Q9UNQ0 1-655): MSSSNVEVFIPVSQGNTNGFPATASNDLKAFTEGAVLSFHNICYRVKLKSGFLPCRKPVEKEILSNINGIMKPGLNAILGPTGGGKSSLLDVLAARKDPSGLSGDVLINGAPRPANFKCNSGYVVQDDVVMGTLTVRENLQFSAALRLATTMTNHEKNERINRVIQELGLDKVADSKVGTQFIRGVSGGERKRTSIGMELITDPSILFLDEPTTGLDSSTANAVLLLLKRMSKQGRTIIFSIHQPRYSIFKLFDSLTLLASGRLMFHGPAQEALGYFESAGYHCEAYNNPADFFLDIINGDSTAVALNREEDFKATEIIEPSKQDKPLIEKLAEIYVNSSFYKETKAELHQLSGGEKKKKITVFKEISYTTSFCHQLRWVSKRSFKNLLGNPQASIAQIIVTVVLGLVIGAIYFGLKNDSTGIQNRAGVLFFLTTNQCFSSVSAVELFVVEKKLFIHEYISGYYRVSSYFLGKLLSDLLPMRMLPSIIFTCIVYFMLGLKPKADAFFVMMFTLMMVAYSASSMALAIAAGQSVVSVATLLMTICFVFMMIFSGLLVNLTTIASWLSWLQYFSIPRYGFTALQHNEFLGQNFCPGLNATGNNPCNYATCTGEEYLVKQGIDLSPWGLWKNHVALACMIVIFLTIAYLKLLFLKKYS

Chain of MRP2 (Q92887 whole entry): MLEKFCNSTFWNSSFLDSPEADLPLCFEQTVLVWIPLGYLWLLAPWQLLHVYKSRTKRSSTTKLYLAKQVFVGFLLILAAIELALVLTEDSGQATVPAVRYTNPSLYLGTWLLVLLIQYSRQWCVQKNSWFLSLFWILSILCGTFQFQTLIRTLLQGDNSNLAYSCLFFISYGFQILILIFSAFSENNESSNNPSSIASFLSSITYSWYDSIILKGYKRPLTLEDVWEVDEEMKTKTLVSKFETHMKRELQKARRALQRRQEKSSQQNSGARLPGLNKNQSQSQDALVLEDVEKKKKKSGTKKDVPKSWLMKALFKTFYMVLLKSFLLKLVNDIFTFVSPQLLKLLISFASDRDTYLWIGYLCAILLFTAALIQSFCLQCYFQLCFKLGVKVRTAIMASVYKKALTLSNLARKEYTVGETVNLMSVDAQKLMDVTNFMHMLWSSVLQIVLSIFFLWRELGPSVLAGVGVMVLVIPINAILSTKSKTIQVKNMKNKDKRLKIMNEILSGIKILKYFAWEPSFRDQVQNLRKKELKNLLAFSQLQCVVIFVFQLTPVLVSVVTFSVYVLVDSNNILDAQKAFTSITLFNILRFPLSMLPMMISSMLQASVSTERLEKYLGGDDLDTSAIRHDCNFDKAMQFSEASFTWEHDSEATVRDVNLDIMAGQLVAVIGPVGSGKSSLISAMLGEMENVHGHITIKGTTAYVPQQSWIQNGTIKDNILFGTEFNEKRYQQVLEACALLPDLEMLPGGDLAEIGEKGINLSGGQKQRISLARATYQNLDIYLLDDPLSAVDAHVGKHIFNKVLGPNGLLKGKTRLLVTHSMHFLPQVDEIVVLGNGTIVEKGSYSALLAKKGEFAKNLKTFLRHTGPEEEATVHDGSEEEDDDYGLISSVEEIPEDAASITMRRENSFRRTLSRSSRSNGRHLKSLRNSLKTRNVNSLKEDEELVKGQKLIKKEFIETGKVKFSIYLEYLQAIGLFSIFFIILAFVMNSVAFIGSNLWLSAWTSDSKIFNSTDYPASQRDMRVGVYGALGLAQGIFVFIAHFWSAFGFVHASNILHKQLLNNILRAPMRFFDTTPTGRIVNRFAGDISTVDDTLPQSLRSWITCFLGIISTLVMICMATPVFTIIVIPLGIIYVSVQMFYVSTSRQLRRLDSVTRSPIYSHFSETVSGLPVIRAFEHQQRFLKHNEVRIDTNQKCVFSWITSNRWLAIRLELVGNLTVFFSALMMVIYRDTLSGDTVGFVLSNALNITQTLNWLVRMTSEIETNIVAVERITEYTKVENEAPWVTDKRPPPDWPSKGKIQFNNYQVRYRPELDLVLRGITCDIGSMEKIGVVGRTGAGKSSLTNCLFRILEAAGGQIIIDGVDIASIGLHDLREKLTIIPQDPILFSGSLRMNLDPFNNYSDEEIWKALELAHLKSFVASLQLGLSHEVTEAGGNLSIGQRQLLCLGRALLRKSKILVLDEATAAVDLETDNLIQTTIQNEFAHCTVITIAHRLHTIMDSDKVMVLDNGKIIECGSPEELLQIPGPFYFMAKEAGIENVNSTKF
Chain of MRP1 (P33527 whole entry): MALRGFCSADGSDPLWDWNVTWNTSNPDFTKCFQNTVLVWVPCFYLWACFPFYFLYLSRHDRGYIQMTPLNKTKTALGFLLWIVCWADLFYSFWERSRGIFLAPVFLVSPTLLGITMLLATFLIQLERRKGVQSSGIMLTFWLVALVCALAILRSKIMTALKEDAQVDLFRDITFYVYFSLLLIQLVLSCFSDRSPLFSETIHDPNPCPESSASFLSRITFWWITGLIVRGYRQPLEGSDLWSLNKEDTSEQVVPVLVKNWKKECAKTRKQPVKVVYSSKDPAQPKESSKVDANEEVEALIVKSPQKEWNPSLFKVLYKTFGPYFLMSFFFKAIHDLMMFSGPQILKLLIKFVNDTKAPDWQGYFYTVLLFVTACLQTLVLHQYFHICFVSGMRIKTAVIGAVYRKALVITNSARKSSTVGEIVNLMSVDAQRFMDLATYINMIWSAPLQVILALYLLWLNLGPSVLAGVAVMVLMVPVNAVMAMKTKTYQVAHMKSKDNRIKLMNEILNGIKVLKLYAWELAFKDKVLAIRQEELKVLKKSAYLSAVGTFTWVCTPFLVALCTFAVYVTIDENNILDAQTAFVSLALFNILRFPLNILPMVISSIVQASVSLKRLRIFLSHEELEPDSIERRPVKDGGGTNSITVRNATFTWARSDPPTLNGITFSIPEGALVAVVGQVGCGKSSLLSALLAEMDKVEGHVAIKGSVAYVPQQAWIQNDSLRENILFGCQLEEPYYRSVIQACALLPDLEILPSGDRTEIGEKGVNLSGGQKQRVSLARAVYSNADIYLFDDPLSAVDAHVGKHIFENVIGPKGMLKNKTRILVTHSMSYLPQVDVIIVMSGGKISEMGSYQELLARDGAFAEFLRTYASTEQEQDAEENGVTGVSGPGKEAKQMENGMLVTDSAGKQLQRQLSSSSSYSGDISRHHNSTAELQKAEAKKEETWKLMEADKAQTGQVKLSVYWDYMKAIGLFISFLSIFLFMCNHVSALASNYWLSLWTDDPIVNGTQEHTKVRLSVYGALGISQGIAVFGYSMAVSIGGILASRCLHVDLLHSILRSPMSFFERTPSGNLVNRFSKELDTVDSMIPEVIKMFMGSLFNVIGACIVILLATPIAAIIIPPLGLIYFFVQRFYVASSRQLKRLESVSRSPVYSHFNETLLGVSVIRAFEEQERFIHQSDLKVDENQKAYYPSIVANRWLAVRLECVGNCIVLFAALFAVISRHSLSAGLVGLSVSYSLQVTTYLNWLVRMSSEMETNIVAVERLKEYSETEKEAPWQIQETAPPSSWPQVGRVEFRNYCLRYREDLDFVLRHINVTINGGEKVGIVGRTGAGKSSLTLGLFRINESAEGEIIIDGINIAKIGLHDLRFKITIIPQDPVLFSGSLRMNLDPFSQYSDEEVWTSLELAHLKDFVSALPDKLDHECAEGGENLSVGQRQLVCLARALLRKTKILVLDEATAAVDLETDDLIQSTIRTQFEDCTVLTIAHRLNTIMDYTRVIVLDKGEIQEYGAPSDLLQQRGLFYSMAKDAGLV

O=S(=O)([O-])C(F)(F)F.OCc1ccnc(-c2cc(CO)ccn2)c1.[Ru+2].c1cc[cH-]c1.c1ccc(P(c2ccccc2)c2ccccc2)cc1 [Ru1, [Ru(η^5-Cp)(PPh3)(2,2’-bipyridine-4,4’-dimethanol)][CF3SO3]]
fold more cytotoxic than Ru2 (MCF7 cancer cells; MCF7 cancer cell line): ~ 7 fold
IC50 (MCF7 cancer cells): 4.61 ± 0.96 µM
IC50 (MDA-MB-231 cancer cells): 13.9 ± 2.8 µM
IC50 (NIH3T3 cells): 28 µM
Inhibition of MRP1 substrate efflux (MRP1): did not display any inhibition property
Inhibition of MRP2 substrate efflux (MRP2): did not display any inhibition property
IG50 times higher than for non-transfected cells, P-gp ([1]; NIH3T3/P-gp vs NIH3T3): 2.4 times
IC50 ([1]; read-out: Half inhibitory growth concentration, IG50, P-gp, NIH3T3 overexpressing P-gp, 48 h incubation at 37 °C, MTT): ~70 µM
IG50 times higher than for non-transfected cells, MRP1 [2]: 2 times
IG50 times higher than for non-transfected cells, BCRP [3]: 2.8 times
Inhibition of BCRP (ABCG2) substrate efflux (BCRP (ABCG2)): did not display any inhibition property

N.N.[Cl][Pt][Cl] [Cisplatin, reference compound]
IC50 (MCF7 cancer cells): 38 ± 1.41 µM
IC50 (MDA-MB-231 cancer cells): 122 ± 25 µM
